Reference: ChEMBL document CHEMBL5291721, “A preclinical secondary pharmacology resource illuminates target-adverse drug reaction associations of marketed drugs” (Nat Commun, 2023)

Experiments:
[1] = target: T1, 5-hydroxytryptamine receptor 3A (Homo sapiens, UniProt P46098); format: functional
T1 sequence (P46098 whole entry): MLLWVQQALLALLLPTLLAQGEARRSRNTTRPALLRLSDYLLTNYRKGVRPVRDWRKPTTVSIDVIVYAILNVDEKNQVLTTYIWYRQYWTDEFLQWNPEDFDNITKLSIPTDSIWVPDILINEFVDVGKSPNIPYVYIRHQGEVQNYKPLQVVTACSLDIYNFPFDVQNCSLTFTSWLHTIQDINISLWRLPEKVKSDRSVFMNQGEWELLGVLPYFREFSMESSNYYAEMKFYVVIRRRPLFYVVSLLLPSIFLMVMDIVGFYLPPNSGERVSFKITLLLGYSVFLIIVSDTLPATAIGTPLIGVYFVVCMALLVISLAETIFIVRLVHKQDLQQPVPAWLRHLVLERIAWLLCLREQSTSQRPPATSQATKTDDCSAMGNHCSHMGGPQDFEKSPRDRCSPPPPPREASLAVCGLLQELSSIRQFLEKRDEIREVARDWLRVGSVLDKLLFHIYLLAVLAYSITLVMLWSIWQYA

D(3) dopamine receptor = D(3) dopamine receptor (Homo sapiens, UniProt P35462)
Chain of D(3) dopamine receptor (P35462 whole entry): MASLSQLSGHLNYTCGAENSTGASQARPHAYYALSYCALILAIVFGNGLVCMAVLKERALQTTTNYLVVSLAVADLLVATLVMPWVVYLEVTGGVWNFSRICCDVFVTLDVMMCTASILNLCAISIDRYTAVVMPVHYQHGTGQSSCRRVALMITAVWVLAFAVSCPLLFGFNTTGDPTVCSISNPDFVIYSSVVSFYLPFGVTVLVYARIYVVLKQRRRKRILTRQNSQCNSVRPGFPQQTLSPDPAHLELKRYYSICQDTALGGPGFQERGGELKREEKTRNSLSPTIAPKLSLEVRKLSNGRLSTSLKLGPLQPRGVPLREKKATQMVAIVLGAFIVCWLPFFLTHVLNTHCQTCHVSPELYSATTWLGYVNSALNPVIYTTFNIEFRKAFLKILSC

[2] = target: T2, Neuropeptide Y receptor type 1 (Homo sapiens, UniProt P25929)
T2 sequence (P25929 whole entry): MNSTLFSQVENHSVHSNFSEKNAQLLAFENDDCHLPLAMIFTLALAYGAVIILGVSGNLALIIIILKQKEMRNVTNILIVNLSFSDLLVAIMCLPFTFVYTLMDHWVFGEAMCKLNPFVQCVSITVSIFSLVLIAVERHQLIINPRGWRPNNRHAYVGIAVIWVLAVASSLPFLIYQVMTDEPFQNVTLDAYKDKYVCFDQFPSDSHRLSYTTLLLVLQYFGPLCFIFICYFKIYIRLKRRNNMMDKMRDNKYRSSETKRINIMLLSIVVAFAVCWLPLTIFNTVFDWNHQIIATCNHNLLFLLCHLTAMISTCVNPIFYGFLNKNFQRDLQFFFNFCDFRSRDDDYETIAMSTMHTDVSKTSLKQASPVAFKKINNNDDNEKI

[3] = target: Neuronal acetylcholine receptor subunit alpha-4 (Homo sapiens, UniProt P43681)
Chain of Neuronal acetylcholine receptor subunit alpha-4 (P43681 whole entry): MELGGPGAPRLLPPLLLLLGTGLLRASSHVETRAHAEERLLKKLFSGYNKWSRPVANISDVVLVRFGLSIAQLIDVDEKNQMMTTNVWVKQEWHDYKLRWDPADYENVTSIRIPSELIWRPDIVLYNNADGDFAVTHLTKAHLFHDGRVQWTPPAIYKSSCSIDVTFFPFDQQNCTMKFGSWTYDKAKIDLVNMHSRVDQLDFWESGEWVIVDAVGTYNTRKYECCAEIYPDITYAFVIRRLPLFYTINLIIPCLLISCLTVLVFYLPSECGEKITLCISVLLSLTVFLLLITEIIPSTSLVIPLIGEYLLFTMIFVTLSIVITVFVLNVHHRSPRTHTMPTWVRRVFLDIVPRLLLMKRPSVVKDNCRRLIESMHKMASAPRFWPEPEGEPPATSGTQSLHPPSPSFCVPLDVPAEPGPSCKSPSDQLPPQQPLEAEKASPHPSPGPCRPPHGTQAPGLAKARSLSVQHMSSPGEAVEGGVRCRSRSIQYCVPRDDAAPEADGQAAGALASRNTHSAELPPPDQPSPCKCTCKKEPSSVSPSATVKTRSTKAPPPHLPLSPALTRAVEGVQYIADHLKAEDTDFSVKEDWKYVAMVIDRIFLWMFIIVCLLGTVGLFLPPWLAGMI

[4] = target: T3, Gamma-aminobutyric acid receptor subunit alpha-1 (Rattus norvegicus, UniProt P62813)
T3 sequence (P62813 whole entry): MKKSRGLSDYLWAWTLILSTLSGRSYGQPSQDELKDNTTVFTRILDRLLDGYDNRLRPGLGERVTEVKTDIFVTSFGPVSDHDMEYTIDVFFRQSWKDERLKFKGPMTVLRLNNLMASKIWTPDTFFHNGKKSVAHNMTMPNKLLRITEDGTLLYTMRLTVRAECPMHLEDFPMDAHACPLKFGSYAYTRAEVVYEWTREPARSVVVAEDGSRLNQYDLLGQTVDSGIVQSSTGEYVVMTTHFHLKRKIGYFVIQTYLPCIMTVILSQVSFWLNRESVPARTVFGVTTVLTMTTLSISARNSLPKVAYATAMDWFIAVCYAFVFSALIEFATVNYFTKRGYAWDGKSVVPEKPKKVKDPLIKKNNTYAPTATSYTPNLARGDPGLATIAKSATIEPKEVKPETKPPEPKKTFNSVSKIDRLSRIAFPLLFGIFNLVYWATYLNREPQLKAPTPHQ

[5] = target: T4, Equilibrative nucleoside transporter 1 (Homo sapiens, UniProt Q99808)
T4 sequence (Q99808 whole entry): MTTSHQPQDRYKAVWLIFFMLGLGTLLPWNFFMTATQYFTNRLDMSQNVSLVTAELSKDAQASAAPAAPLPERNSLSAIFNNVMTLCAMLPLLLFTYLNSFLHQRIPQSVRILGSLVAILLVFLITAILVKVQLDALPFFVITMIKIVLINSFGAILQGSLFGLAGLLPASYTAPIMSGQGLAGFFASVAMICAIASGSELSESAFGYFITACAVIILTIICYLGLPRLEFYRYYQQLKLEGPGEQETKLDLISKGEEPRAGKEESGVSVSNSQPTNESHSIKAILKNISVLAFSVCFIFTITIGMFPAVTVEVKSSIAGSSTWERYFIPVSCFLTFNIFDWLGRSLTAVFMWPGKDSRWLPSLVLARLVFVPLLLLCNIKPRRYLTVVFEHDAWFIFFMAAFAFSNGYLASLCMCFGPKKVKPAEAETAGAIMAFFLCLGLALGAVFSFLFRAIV

Motilin receptor = Motilin receptor (Homo sapiens, UniProt O43193)
Chain of Motilin receptor (O43193 whole entry): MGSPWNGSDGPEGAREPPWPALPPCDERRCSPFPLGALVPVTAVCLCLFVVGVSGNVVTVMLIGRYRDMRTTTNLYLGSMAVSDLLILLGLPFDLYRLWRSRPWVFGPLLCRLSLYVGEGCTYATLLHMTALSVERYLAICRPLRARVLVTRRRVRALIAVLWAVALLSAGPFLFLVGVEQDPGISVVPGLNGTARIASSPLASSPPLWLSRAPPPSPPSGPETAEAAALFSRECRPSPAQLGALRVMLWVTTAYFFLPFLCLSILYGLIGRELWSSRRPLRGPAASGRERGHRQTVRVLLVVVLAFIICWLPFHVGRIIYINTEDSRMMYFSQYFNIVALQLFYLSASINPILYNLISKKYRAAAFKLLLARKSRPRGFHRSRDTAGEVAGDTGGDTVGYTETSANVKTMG

Histamine H3 receptor = Histamine H3 receptor (Homo sapiens, UniProt Q9Y5N1)
Chain of Histamine H3 receptor (Q9Y5N1 whole entry): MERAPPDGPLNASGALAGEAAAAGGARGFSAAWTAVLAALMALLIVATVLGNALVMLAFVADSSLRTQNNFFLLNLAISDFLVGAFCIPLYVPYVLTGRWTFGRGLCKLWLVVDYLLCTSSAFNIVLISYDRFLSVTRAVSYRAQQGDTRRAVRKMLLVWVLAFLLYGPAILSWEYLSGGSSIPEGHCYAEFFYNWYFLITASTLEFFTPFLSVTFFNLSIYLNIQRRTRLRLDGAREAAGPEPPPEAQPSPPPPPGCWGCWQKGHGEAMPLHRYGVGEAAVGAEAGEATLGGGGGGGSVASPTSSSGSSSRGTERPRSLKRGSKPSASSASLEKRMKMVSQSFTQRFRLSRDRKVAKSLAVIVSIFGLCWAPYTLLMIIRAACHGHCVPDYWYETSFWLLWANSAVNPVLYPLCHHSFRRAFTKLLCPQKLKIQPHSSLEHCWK

[6] = target: T5, Type-1 angiotensin II receptor (Homo sapiens, UniProt P30556)
T5 sequence (P30556 whole entry): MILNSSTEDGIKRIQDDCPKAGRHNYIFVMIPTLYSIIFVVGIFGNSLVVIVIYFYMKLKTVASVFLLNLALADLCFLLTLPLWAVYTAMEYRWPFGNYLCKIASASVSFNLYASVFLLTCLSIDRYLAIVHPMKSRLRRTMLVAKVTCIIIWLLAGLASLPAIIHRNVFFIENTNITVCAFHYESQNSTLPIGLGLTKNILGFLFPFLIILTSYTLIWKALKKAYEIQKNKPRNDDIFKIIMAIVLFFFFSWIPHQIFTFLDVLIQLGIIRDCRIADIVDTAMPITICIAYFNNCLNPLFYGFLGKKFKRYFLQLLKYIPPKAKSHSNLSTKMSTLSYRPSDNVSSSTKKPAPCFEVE

[7] = target: T6, 5-hydroxytryptamine receptor 1A (Homo sapiens, UniProt P08908); format: functional, cell-based
T6 sequence (P08908 whole entry): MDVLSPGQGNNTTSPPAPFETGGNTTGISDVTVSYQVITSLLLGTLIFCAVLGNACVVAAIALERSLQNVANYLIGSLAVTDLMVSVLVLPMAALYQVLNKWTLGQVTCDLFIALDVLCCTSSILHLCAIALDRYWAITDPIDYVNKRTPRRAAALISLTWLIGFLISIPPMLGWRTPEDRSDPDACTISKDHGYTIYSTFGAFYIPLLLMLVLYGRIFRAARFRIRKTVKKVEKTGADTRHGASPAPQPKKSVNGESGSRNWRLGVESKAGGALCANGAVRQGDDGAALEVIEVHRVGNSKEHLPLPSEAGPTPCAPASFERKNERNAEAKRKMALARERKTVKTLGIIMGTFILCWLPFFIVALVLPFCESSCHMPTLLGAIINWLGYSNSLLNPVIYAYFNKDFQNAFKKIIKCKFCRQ

[8] = target: Sodium-dependent noradrenaline transporter (Homo sapiens, UniProt P23975)
Chain of Sodium-dependent noradrenaline transporter (P23975 whole entry): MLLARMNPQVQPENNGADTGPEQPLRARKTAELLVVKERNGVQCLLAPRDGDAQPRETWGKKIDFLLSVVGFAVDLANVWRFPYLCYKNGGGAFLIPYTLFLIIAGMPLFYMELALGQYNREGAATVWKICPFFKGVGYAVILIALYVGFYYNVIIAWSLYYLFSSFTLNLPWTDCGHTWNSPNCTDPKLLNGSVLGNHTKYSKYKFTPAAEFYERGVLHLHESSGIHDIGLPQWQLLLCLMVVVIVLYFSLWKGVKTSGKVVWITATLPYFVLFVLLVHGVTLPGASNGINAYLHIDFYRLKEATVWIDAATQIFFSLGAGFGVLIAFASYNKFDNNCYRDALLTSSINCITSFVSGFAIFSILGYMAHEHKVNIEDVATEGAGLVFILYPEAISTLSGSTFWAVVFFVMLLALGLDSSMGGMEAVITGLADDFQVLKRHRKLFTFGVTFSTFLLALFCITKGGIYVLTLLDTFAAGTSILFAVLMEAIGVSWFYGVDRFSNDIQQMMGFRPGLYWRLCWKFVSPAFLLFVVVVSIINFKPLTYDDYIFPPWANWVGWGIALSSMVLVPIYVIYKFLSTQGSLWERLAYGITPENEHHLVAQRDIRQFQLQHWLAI

[9] = target: Glutamate receptor ionotropic, NMDA 1 (Rattus norvegicus, UniProt P35439)
Histamine H2 receptor = Histamine H2 receptor (Homo sapiens, UniProt P25021); format: functional, cell-based
Chain of Histamine H2 receptor (P25021 whole entry): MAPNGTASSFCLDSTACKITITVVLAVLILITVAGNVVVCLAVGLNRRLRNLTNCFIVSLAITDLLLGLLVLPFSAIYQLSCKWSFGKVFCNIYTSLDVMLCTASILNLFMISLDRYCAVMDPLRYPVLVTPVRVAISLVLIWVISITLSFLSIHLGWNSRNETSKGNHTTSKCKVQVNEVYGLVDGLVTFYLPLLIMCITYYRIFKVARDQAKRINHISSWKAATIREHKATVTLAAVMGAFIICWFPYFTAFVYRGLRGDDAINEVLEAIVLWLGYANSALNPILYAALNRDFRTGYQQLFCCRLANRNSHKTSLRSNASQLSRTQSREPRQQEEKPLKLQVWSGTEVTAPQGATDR

[10] = target: T3, Gamma-aminobutyric acid receptor subunit alpha-1; format: functional
Also: assay procedure not described here.

Row | SMILES | AC50 [1] [µM] | AC50 (D(3) dopamine receptor) [µM] | AC50 [2] [µM] | AC50 [3] [µM] | AC50 [4] [µM] | AC50 [5] [µM] | AC50 (Motilin receptor) [µM] | AC50 (Histamine H3 receptor) [µM] | AC50 [6] [µM] | AC50 [7] [µM] | AC50 [8] [µM] | AC50 [9] [µM] | AC50 (Histamine H2 receptor) [µM] | AC50 [10] [µM]
1 | COc1ccc(/C=C/C(=O)Nc2ccccc2C(=O)O)cc1OC | > 30 | > 30 | > 30 | > 30 | > 30 | > 30 | > 30 | > 30 | > 30 | > 30 | > 30 | > 30 | > 30 | > 30
2 | NCCCC(O)(P(=O)(O)O)P(=O)(O)O [ALENDRONIC ACID] | > 10 |  | > 30 | > 10 | > 10 | > 30 | > 10 | > 10 | > 30 | > 10 |  | > 10 | > 10 | > 10
3 | Nc1ccc(C(=O)O)c(O)c1 [AMINOSALICYLIC ACID] | > 30 | > 30 | > 30 | > 30 | > 30 |  | > 30 | > 30 | > 30 |  | > 30 | > 30 | > 30 | > 30
4 | COc1cc(OC)c(C(=O)CCCN2CCCC2)c(OC)c1 [BUFLOMEDIL] | > 30 | > 30 | > 30 | > 30 | > 30 | > 30 | > 30 | 20 | > 30 | 29 | > 30 | > 30 | > 30 | > 30
5 | CS(=O)(=O)OCCCCOS(C)(=O)=O [BUSULFAN] | > 30 | > 30 | > 30 | > 30 |  | > 30 | > 30 | > 30 | > 30 | > 30 | > 30 | > 30 | > 30 | > 30
6 | CCCCCCNC(=O)n1cc(F)c(=O)[nH]c1=O [CARMOFUR] | > 30 | > 30 | > 30 | > 30 | > 30 | > 30 | > 30 | > 30 | > 30 | > 30 | > 30 | > 30 | > 30 | > 30
7 | CC(C)(C)NCC(O)c1cc(Cl)c(N)c(Cl)c1 (stereo not drawn) [CLENBUTEROL] | > 30 | > 30 | > 30 | > 30 | > 30 | > 30 | > 30 | > 30 | > 30 | > 30 | 27.9 | > 30 | > 30 | > 30
8 | COc1cccc2c1C(=O)c1c(O)c3c(c(O)c1C2=O)C[C@@](O)(C(C)=O)C[C@@H]3O[C@H]1C[C@H](N)[C@H](O)[C@H](C)O1 [DAUNORUBICIN] | 12.8 | 17.9 | > 10 | 10.8 | > 30 | 14.3 | > 30 | 18 | > 30 |  | 10.4 | > 30 | > 30 | > 30
9 | Nc1ccn([C@@H]2O[C@H](CO)[C@@H](O)C2(F)F)c(=O)n1 [GEMCITABINE] | > 30 | > 30 | > 30 | > 10 | > 10 |  | > 10 | > 10 | > 30 | > 10 | > 30 | > 10 | > 10 | > 10
10 | CCn1cc(C(=O)O)c(=O)c2cc(F)c(N3CCN(C)CC3)cc21 [PEFLOXACIN] | > 30 | 3.6 | > 30 |  | > 30 | > 30 | > 30 | > 30 | > 30 | > 30 | > 30 | > 30 | > 30 | > 30
11 | C[n+]1ccccc1/C=N/O [PRALIDOXIME] | > 30 | > 30 |  |  | > 30 |  |  |  |  | > 30 |  | > 30 | > 30 | > 30
12 | CCCNC(C)C(=O)Nc1ccccc1C (stereo not drawn) [PRILOCAINE] | > 30 | > 30 | > 30 | > 30 |  | > 30 | > 30 | > 30 | > 30 | > 30 | > 30 | 21 | > 30 | > 30
13 | CC(C)CC(N(C)C)C1(c2ccc(Cl)cc2)CCC1 (stereo not drawn) [SIBUTRAMINE] | > 30 | > 10 | > 30 | > 10 | > 10 | > 30 | > 10 | > 10 | > 30 | > 10 |  | > 10 | > 10 | > 10
14 | Cc1cccc(N(C)C(=S)Oc2ccc3ccccc3c2)c1 [TOLNAFTATE] | > 30 | > 30 | > 10 | > 10 | > 10 | > 10 | > 10 |  | > 10 | > 10 | > 10 | > 10 | > 30 | > 10
15 | CN1[C@@H]2CC[C@H]1C[C@@H](OC(=O)c1c[nH]c3ccccc13)C2 [TROPISETRON] |  | > 30 | > 30 | 5.2 | > 30 |  | > 30 | > 30 | > 30 |  |  |  | > 30 | 0.5
16 | COc1ccc(C(CN(C)C)C2(O)CCCCC2)cc1 (stereo not drawn) [VENLAFAXINE] | > 30 |  | > 30 | > 10 | > 10 | > 30 | > 10 | 6.8 | > 30 |  |  | > 10 | > 30 | > 10
